# According to patent publication US20150313913A1, “POSITIVE ALLOSTERIC MODULATORS OF THE GABA-A RECEPTOR IN THE TREATMENT OF AUTISM” (UNIVERSITY OF WASHINGTON THROUGH ITS CENTER FOR …, priority 2013, published 2015):
# “Also recorded” adds a separate entry of the source.
# Columns and labels:
# GABA-A receptor = conditions: cited from earlier work
# BTBR mice [1] = assay: Context-dependent fear conditioning test; assay type: in vivo
# Source text: (§1) The contextual fear-conditioning chamber was a square arena (25×25 cm) with clear PLEXIGLAS™ walls and a metal grid floor connected to a circuit board that delivered shocks to the metal grid (COULBOURN INSTRUMENTS™). An analog camera was attached on top of the chamber. The camera and the circuit board were connected to a personal computer, and its software (FREEZE FRAME™ 2.0, ACTIMETRICS™) controlled the circuit and recorded the data. The chamber was cleaned with 70% ethanol and wiped with paper towels before each session. In the habituation session, a test mouse was placed in the chamber and allowed to explore for 2 min^66-69. Immediately after habituation, the test mouse received a single mild foot shock (2 s, 0.5 mA). After staying in the chamber one more min, the mouse was removed from the chamber. For the 30-min short-term memory test, the mouse was returned to the context 30 min after the end of the training session. For 24-hr long-term memory test, the mouse was returned to the context 24 hr after the training session. The movement of mice was also recorded by a USB webcam (LIFECAM™ HD-6000, MICROSOFT™) and PC-based video capture software (WINAVI™ Video Capture, ZJ MEDIA DIGITAL TECHNOLOGY™) for 2 min. The recorded video file was further analyzed by off-line video tracking software (ETHOVISION™ XT 7.0, NOLDUS TECHNOLOGY™). The freezing scores were calculated by dividing the test session into 1 min bouts and averaging together all 2 min for each animal. All data shown.
# (§2) Freezing behavior is defined as the period during which the velocity of the test mouse is less than 1.75 cm/s, and non-freezing behavior is defined as the period during which the velocity of the mouse is greater than 2 cm/s.
# C57BL/6J mice = assay: Context-dependent fear conditioning test; assay type: in vivo
# Source text: as §1, §2
# Scn1a+/− mice = assay: Three-chamber social preference test; assay type: in vivo
# Source text: The mouse was allowed to freely explore each chamber. […] The recorded video file was further analyzed by off-line video tracking software (ETHOVISION™ XT 7.0). […] All data shown are means±s.e.m. and analyzed using two-way ANOVA with Bonferroni's post hoc analysis and one-way ANOVA with Tukey's post hoc analysis.
# Oral administration is specifically contemplated for the methods described herein, and is well known for both benzodiazepines and non-BDZ GABA-A enhancers as described herein.
# (§3) The test was performed as described previously (Han et al., 2012) with minor modifications. The threechamber apparatus is a non-transparent Plexiglas box (30×60 cm) with two transparent partitions that make left, center, and right chambers (30×20 cm). In the first 10-min session, a test mouse was placed in the center of the empty three-chamber unit to habituate the test mouse. The mouse was allowed to freely explore each chamber. In the second 10-min session, an age- and gender-matched same strain mouse that had never been exposed to the test mouse, was placed in one of the two wire cages. The empty wire cage as an inanimate object cue was placed on the other side. Then, the test mouse was placed again in the center, and allowed to freely explore the chamber for 10 min. Time spent in each chamber, and time spent within a 5 cm radius proximal to each wire cage, as a close interaction were measured by the videotracking software (EthoVision XT 8.5, Noldus Technology). All data shown are means±s.e.m. and analyzed using two-way ANOVA with Bonferroni's post hoc analysis and one-way ANOVA with Tukey's post hoc analysis.
# (§4) L-838,417, and DMCM (Sigma), dissolved in 100% DMSO (sterile, Sigma) was diluted in PBS (the final concentration of DMSO was ranged from 0.005% to 0.1%). Drugs were administered by an intraperitoneal injection in a volume of […] 30 min before the behavioral tests.
# [2] = test system: mouse genetic models of human Dravet syndrome and idiopathic autism; assay: Summary: low-dose treatment of mouse models of autism; assay type: in vivo, mice; conditions: low doses that do not induce sedative or anxiolytic effects
# Source text: The present disclosure describes methods effective in the rescue or amelioration of autism-like behavior, cognitive deficit, and context-dependent spatial memory.
# In particular embodiments, these methods comprise the administration of low doses of a benzodiazepine to a human or other mammalian subject in order to rescue autism-like behavior, cognitive deficit, and context-dependent spatial memory. […] At such low doses, the administration of benzodiazepines, such as CLZ, to mammalian subjects will result in improvement of autism-like behavior, cognitive deficit, and context-dependent spatial learning and memory with much lower levels of sedation compared to mammalian subjects who receive typical higher doses of CLZ or other benzodiazepines that are used for treatment of anxiety, insomnia, or seizure.
# The present disclosure is also directed to methods of rescuing or ameliorating indicia of Autism Spectrum disorders, autism-like behavior, cognitive deficit, and context-dependent spatial learning and memory in Dravet syndrome or idiopathic autism with α-2,3-specific GABA-A receptor positive allosteric modifiers. Such α-2,3-subunit selective GABA-A receptor positive allosteric modifiers include L838,417.
# Therapeutic approaches to treat autistic traits in animal studies or in clinical trials have primarily focused on reducing excitatory neurotransmission in glutamatergic synapses to rebalance E/I ratio in autistic brain (Michalon et al., 2012; Yang et al., 2012). However, autistic-like behaviors in ASD mouse models are only partially reversed by drugs that inhibit excitatory neurotransmission, and these drugs also have unwanted side effects on wild-type mice (Henderson et al., 2012; Michalon et al., 2012; Yang et al., 2012). To overcome these drawbacks, the inventors focused on the opposing side, the GABAergic inhibitory transmission in autistic brain. Their results highlight the potential for therapy of autistic-like behaviors and cognitive deficit in ASD by low-dose treatment with subunit-selective benzodiazepines and other positive allosteric modulators of GABA-A receptors. […] It is possible that the biphasic dose-response relationship of the positive allosteric modulators reflects their actions on receptors containing α2,3 subunits at low doses and on receptors containing α1 subunits at higher doses.
# BTBR mice [3] = assay: Three-chamber social interaction test; conditions: for social interaction deficit: 0.05 mg/kg (low dose) 30 min before test; for effect on social interaction at doses above the maximally effective dose: higher doses; for dose of maximal effect on social interaction: i.p., 30 min before test; for social interaction (time with stranger mouse, close interaction), dose series: single i.p. injection 30 min before test, low/increasing doses
# Protocol: In the three-chamber test, a test mouse is placed in the center chamber, and the preference of the test mouse for interaction with an inanimate object (a small empty cage) in the left chamber vs. a stranger mouse in an identical cage in the right chamber using a digital camera and quantitative video-tracking analysis.
# as §3, §4
compound,measurement,setting,value
O=C1CN=C(c2ccccc2Cl)c2cc([N+](=O)[O-])ccc2N1 [Clonazepam],Effect at GABA-A receptor,"GABA-A receptor; Table 1, exemplary benzodiazepines",Agonist Long- acting
same,short-term and long-term memory,BTBR mice [1]; 0.0125 mg/kg,no significant effects
same,long-term (24 h) memory,BTBR mice [1]; 0.05 mg/kg,improved
same,short-term (30 min) memory,BTBR mice [1]; 0.05 mg/kg,improved
same,short-term and long-term memory,BTBR mice [1]; 0.1 mg/kg,no significant effects
same,context-dependent fear memory on Day 1 and Day 14,BTBR mice [1]; daily 0.05 mg/kg for 14 days,improved
same,tolerance to effects on cognitive deficit,BTBR mice [1]; daily 0.05 mg/kg for 14 days,does not cause tolerance
same,spatial learning in context-dependent fear conditioning,BTBR mice [1]; low-dose CLZ (FIG. 10),rescued
same,cognitive changes in fear conditioning,"C57BL/6J mice; clonazepam, any dose (0-0.1 mg/kg)",no cognitive changes
same,"social interaction, 3-chamber social preference test","Scn1a+/− mice; single i.p. 0.0625 mg/kg 30 min before test, listed as CLZ, 0.0625 mg/kg",completely rescued; also recorded: completely restored; also recorded: completely recovered
same,autistic-like behaviors and cognitive deficit in BTBR mice (summary),[2],improved
same,social interaction deficit,BTBR mice [3],reversibly rescued; also recorded: improved
same,social interaction deficit,BTBR mice [3]; listed as CLZ,recover their preference
same,social interactions on Day 1 of repeated treatment,BTBR mice [3]; 0.05 mg/kg i.p. daily,significantly increased
same,social interactions after 14 days of repeated treatment,BTBR mice [3]; 0.05 mg/kg i.p. daily for 14 days,fully retained and even increased
same,sedation / total distance moved during the three-chamber test,BTBR mice [3]; dose range up to 0.5 mg/kg (clonazepam: test doses),did not cause sedation; also recorded: no sedation
same,improvement of social deficit: time of interaction with stranger mouse vs. novel object,BTBR mice [3]; dose series (FIG. 39D),strikingly dose-dependent
same,increase of time spent in the chamber containing the stranger mouse,BTBR mice [3]; doses from 0.00625 mg/kg to 0.05 mg/kg i.p.,approximately 2.5 fold
same,effect on social interaction at doses above the maximally effective dose,BTBR mice [3],not observed; also recorded: lost at higher doses
same,dose of maximal effect on social interaction,BTBR mice [3],0.05 mg/kg
same,tolerance to rescue of social interaction behavior,"BTBR mice [3]; repeated 0.05 mg/kg, 14 days",does not elicit tolerance
same,"social interaction (time with stranger mouse, close interaction), dose series",BTBR mice [3],rescued; also recorded: increased
"Cn1ncnc1COc1nn2c(-c3cc(F)ccc3F)nnc2cc1C(C)(C)C [L-838,417]",Effect at GABA receptor,"GABA-A receptor; Table 2, exemplary SS-PAMs","Partial agonist Selective for α2, α3 (and possibly α5) subunits"
same,long-term (24 h) memory,BTBR mice [1]; 0.05 mg/kg,improved
same,short-term (30 min) memory,BTBR mice [1]; 0.05 mg/kg,improved
same,memory of the spatial context,BTBR mice [1]; 0.05 mg/kg 30 min before training session and 24-h memory session,substantially improved
same,spatial learning behavior (FIG. 13B legend),"BTBR mice [1]; 0.05 mg/kg, legend body prints DS mice, title BTBR mice",substantially rescued
same,memory of the spatial context,"C57BL/6J mice; 0.05 mg/kg L838,417",no effect
same,social interactions in three-chamber test,"Scn1a+/− mice; low doses, narrow dose range (FIGS. 41N, 41O)",improves social interactions
same,autistic-like behaviors and cognitive deficit in BTBR mice (summary),[2],improved
same,social interaction deficit,BTBR mice [3],rescued
same,social behavior (close interaction),BTBR mice [3]; 0.5 mg/kg,disappeared
same,dose at low point of time in the chamber with the inanimate object,BTBR mice [3]; biphasic dose-response,0.05 mg/kg
same,effect on social interaction at doses above the maximally effective dose,BTBR mice [3],lost when the dose increased
same,effect on social interaction at doses above the maximally effective dose,"BTBR mice [3]; listed as L838,417",reduced response
same,dose of maximal effect on social interaction,BTBR mice [3],0.05 mg/kg
same,time of interaction with the inanimate object,BTBR mice [3]; increasing doses,decrease
same,total movement during the three-chamber test at high dose,"BTBR mice [3]; mouse, in vivo",tended to increase
same,"social interaction (time with stranger mouse, close interaction), dose series",BTBR mice [3],increased
same,"social interaction (time with stranger mouse, close interaction), dose series","BTBR mice [3]; listed as L818,417",progressively increase
